Values after ≈ are worked out from the molar mass of the structure shown. Read-outs that look alike come from different tables or passages of the source.
Assays:
S. epidermidis ATCC12228 [1] = test: MIC assay (broth dilution in tubes, CLSI); format: cell-based, Staphylococcus epidermidis; details: Staphylococcus epidermidis
Description: (§1) Staphylococcus epidermidis ATCC12228 and RP62A strains were purchased from the American Type Culture Collection (ATCC, Manassas, USA). Staphylococcus aureus ATCC29213, Escherichia coli ATCC25922 and Pseudomonas aeruginosa ATCC27853 were kindly provided by Dr. Bijie Hu at Zhongshan Hospital (Shanghai, China). S. epidermidis strains se527, se886, se847, seG203, Streptococcus pyogenes strain 144, and Streptococcus mutans strain 128 were all clinical isolates from Zhongshan Hospital and Huashan Hospital (Shanghai, China). If not stated otherwise, S. epidermidis and S. aureus strains were grown at 37°C in tryptic soy broth (TSB, Oxoid) containing 0.25% glucose, E. coli and P. aeruginosa strains were grown at 37°C in Luria-Bertani (LB, Oxoid).
(§2) MIC assays for the antibacterial activities of the compounds were performed according to the broth micro-dilution (in tubes) method of the Clinical and Laboratory Standards Institute (CLSI) of America. The Minimal Bactericidal Concentration (MBC) was obtained by subculturing 100 μl from each negative (no visible bacterial growth) tube from the MIC assay, onto substance-free Mueller-Hinton agar plates. The plates were incubated at 37°C for 24 hours, and the MBC was defined as the lowest concentration of substance which produced subcultures growing no more than five colonies on each plate.

[2] = Erythrocyte hemolysis assay; format: cell-based, human; details: human, 1 hour, 37°C;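 as to hemolysis: compounds tested at their MIC and at 4× MIC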
Method: (§3) Cytotoxicity of the antibacterial compounds on cultured Vero cell was measured by using the Cell Proliferation Kit I (MTT) (Roche, Indianapolis, USA) according to the manufacturer's protocol. Addition of DMSO (1%) in the medium produced a slight cytotoxicity on Vero cell, which could easily be corrected for. Each assay was performed in quadruplicate and repeated three times. The results were converted to percentage of the control (cells only treated with 1% DMSO) and CC50 (concentrations that produce a 50% cytotoxicity effect on Vero cell) was calculated by the Origin v7.0 software (OriginLab, Northampton, USA). Hemolytic activities of the compounds were determined by using healthy human erythrocytes. The erythrocytes were washed three times in sterile saline and resuspended to 5% prior to the assay. […] Cells without compound treatment and cells with 1% Triton-100 treatment were used as 0% and 100% hemolysis controls, respectively. The cell suspensions were incubated for 1 hour at 37°C and centrifuged at 1000×g for 10 min. Volumes of 100 μl supernatants were transferred to another sterile plate and hemoglobin release from the cells was determined at 570 nm. […] The hemolysis assays were repeated twice.

[3] = test system: healthy human erythrocytes; test: Erythrocyte hemolysis assay; format: cell-based;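 as to hemolysis: compounds tested at their MIC and at 4× MIC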
Method: as §3

S. mutans 128 = test: MIC assay (broth dilution in tubes, CLSI); format: cell-based, Streptococcus mutans; details: for MIC: Streptococcus mutans, S. mutans 128, read-out: Minimal inhibitory concentration (MIC)
Description: as §1, §2

S. pyogenes 144 = test: MIC assay (broth dilution in tubes, CLSI); format: cell-based, Streptococcus pyogenes; details: for MIC: Streptococcus pyogenes, S. pyogenes 144, read-out: Minimal inhibitory concentration (MIC)
Description: as §1, §2

S. epidermidis RP62A [4] = test: MIC assay (broth dilution in tubes, CLSI); format: cell-based; details: Staphylococcus epidermidis, read-out: Minimal inhibitory concentration (MIC)
Description: as §1, §2

S. epidermidis RP62A [5] = test: Minimal bactericidal concentration (MBC) assay; format: cell-based; details: Staphylococcus epidermidis; S. epidermidis RP62A; read-out: Minimal bactericidal concentration (MBC)
Method: as §2

S. epidermidis ATCC12228 [6] = test: Minimal bactericidal concentration (MBC) assay; format: cell-based; details: Staphylococcus epidermidis
Method: as §2

YycG' protein [7] = molecular target: T1, YycG' protein (Staphylococcus epidermidis, UniProt Q8CU87); test: Inhibition of YycG' ATPase activity / autophosphorylation (Kinase-Glo Luminescent Kinase Assay); format: biochemical; details: for inhibition at 50 µM: read-out: Inhibition of YycG' phosphorylation (decrease of ATPase activity)
T1 construct: of YycG (370aa to 610aa) was amplified by PCR; His-tag (pET28a) (N); made in house; host or cells: E. coli BL21 (pET28a, pETYycG')
T1 sequence (Q8CU87 370-610): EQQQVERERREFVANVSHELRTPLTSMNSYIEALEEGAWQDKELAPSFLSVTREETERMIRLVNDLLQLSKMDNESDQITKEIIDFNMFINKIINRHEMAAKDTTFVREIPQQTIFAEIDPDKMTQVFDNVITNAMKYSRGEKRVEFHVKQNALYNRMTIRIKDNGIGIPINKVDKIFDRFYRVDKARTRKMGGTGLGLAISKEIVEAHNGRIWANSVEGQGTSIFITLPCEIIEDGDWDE
Method: The inhibitory activities of the compounds for the ATPase activity of the YycG' protein was measured using the Kinase-Glo™ Luminescent Kinase Assay (Promega, Madison, USA). Briefly, 4 μg YycG' protein was pre-incubated with a series of dilution of compounds in the reaction buffer (40 mM Tris [pH 7.5], 20 mM MgCl2, and 0.1 mg/ml BSA), at 25°C for 30 min. Then 3 μM ATP was added for another incubation of 30 min at 25°C, and Kinase-Glo™ Reagent was added to detect the rest amount of ATP, as recorded from luminescence measurements (RLU). In parallel, theYycG' protein with no addition of compounds was used as the control. The rate of inhibiting protein phosphorylation (Rp) by the compounds was calculated from equation 1:
Rp=RLU(YycG^′+compound+ATP+Reagent)−RLU(YycG^′+ATP+Reagent)/RLU(ATP+Reagent)−RLU(YycG^′+ATP+Reagent)×100% (1) MathType@MTEF@5@5@+=feaafiart1ev1aaatCvAUfKttLearuWrP9MDH5MBPbIqV92AaeXatLxBI9gBaebbnrfifHhDYfgasaacH8akY=wiFfYdH8Gipec8Eeeu0xXdbba9frFj0=OqFfea0dXdd9vqai=hGuQ8kuc9pgc9s8qqaq=dirpe0xb9q8qiLsFr0=vr0=vr0dc8meaabaqaciaacaGaaeqabaqabeGadaaakeaacqqGsbGudaWgaaWcbaGaeeiCaahabeaakiabg2da9maalaaabaGaeeOuaiLaeeitaWKaeeyvauLaeiikaGIaeeywaKLaeeyEaKNaee4yamMafe4raCKbauaacqGHRaWkcqqGJbWycqqGVbWBcqqGTbqBcqqGWbaCcqqGVbWBcqqG1bqDcqqGUbGBcqqGKbazcqGHRaWkcqqGbbqqcqqGubavcqqGqbaucqGHRaWkcqqGsbGucqqGLbqzcqqGHbqycqqGNbWzcqqGLbqzcqqGUbGBcqqG0baDcqGGPaqkcqGHsislcqqGsbGucqqGmbatcqqGvbqvcqGGOaakcqqGzbqwcqqG5bqEcqqGJbWycuqGhbWrgaqbaiabgUcaRiabbgeabjabbsfaujabbcfaqjabgUcaRiabbkfasjabbwgaLjabbggaHjabbEgaNjabbwgaLjabb6gaUjabbsha0jabcMcaPaqaaiabbkfasjabbYeamjabbwfavjabcIcaOiabbgeabjabbsfaujabbcfaqjabgUcaRiabbkfasjabbwgaLjabbggaHjabbEgaNjabbwgaLjabb6gaUjabbsha0jabcMcaPiabgkHiTiabbkfasjabbYeamjabbwfavjabcIcaOiabbMfazjabbMha5jabbogaJjqbbEeahzaafaGaey4kaSIaeeyqaeKaeeivaqLaeeiuaaLaey4kaSIaeeOuaiLaeeyzauMaeeyyaeMaee4zaCMaeeyzauMaeeOBa4MaeeiDaqNaeiykaKcaaiabgEna0kabigdaXiabicdaWiabicdaWiabcwcaLiaaxMaacaWLjaWaaeWaaeaacqaIXaqmaiaawIcacaGLPaaaaaa@A46C@
IC50 (the concentration of inhibition of 50% YycG' protein autophosphorylation) was obtained by using the Origin v7.0 software (OriginLab, Northampton, USA).

S. aureus ATCC29213 = test: MIC assay (broth dilution in tubes, CLSI); format: cell-based, Staphylococcus aureus; details: for MIC: Staphylococcus aureus
Description: as §1, §2

SrrB' = test: Inhibition of SrrB' autophosphorylation (Kinase-Glo); format: biochemical, S. epidermidis; details: compound 50 μM, 4 μg protein, 3 μM ATP
[8] = Cytotoxicity on Vero cell (MTT, Cell Proliferation Kit I); format: cell-based, African Green-monkey; details: African green monkey, highest concentration tested 200 μM
Method: as §3

Vero cell = test: as above; format: cell-based, African Green-monkey; details: highest concentration tested 200 μM
Method: as §3

YycG' protein [9] = molecular target: T1, YycG' protein; test: Compound-YycG' protein binding assay (SPR, Biacore 3000); details: SPR
Description: The YycG' fragment containing the cytoplasmic signal domains (the HATPase_c and HisKA domain, see Figure 1A) of YycG (370aa to 610aa) was amplified by PCR (with the chromosomal DNA of S. epidermidis ATCC12228 as the template, and (5' […] 3') and (5' […] 3') as the primers. Subsequently, the fragment was digested with BamHI and XholI (TAKARA, Japan) and ligated into the corresponding sites of pET28a (Promega, Madison, USA) to obtain pETYycG'. The expressed YycG' protein was purified with the ProBond™ Purification System (Invitrogen, California, USA), according to the manufacturer's protocol.
The in vitro binding affinities of the inhibitor compounds to the YycG' protein was determined using surface plasmon resonance (SPR) biosensor technology on the dual flow cell Biacore 3000 instrument (Biacore AB, Uppsala, Sweden) with a similar method as described in our previous study. Immobilization of the YycG' protein to the hydrophilic carboxymethylated dextran matrix of the sensor chip CM5 (Biacore) was carried out by the standard primary amine coupling reaction. […] The equilibrium constants (KD) evaluating the protein-ligand binding affinity were determined by the steady state or the kinetic state affinity fitting model encoded in the Biacore analysis software.

[10] = ATCC12228, Table 2, as tested on S. epidermidis ATCC 12228, read-out: MICs
[11] = S. epidermidis ATCC12228 (non-biofilm-forming strain), read-out: Minimal inhibitory concentration (MIC)
[12] = erythrocytes (5% suspension), at 4 × MIC (number in parenthesis)
[13] = erythrocytes (5% suspension), at MIC for S. epidermidis ATCC12228
[14] = S. epidermidis RP62A (biofilm-forming strain)
[15] = 4 μg YycG' protein, 3 μM ATP, read-out: IC50 for YycG'
[16] = compound 50 μM, 4 μg protein, 3 μM ATP
[17] = S. aureus ATCC29213, read-out: Minimal inhibitory concentration (MIC)

Row | SMILES | MIC (S. epidermidis ATCC12228 [1]; [10]) [µM] | MIC (S. epidermidis ATCC12228 [1]; [11]) [µM] | hemolysis at 1 h [2, 12] [%] | hemolysis at 1 h [2, 13] [%] | MIC (S. mutans 128) [µM] | Inhibitory effect against Streptococcus pyogenes (S. pyogenes 144) | MIC (S. pyogenes 144) [µM] | MIC (S. epidermidis RP62A [4]; [14]) [µM] | MBC (S. epidermidis RP62A [5]) [µM] | MBC (S. epidermidis ATCC12228 [6]) [µM] | IC50 (YycG' protein [7]; [15]) [µM] | inhibition at 50 µM (YycG' protein [7]; [16]) [%] | Inhibitory effect against S. aureus (S. aureus ATCC29213) | MIC (S. aureus ATCC29213; [17]) [µM] | Inhibition of SrrB' phosphorylation (SrrB') [%] | further results
1 | CCc1ccccc1N=C1SC(=Cc2ccc(OCC(O)O)c(OC)c2)C(=O)N1c1ccccc1CC [Compound 2] | 25 (≈ 13 µg/mL) | 25 (≈ 13 µg/mL) | ~6 | 2.3 | 100 (≈ 51.9 µg/mL) | effective | 100 (≈ 51.9 µg/mL) | 25 (≈ 13 µg/mL) | 100 (≈ 51.9 µg/mL) | 100 (≈ 51.9 µg/mL) | 29 | 61 | effective | 25 (≈ 13 µg/mL) | 3 | Hemolysis ([3]; at 4 × MIC (number in parenthesis), 1 hour, 37°C): 6.1%; Hemolytic activity ([3]; at the highest concentration (200 μM)): ~ 16 % of the zero control; Inhibitory effect against Streptococcus mutans (S. mutans 128): effective
2 | CC(=O)Nc1ccccc1C(=O)Nc1ccc2cc3ccc(NC(=O)c4ccccc4NC(C)=O)cc3nc2c1 [Compound 3] | 12.5 (≈ 6.64 µg/mL) | 12.5 (≈ 6.64 µg/mL) | 0.5 | < 0.1 | > 200 | inhibited the growth | 25 (≈ 13.3 µg/mL) | 25 (≈ 13.3 µg/mL) | 100 (≈ 53.2 µg/mL) | 50 (≈ 26.6 µg/mL) | 15 | 70 | inhibited the growth | 100 (≈ 53.2 µg/mL) | 5 | CC50 ([8]; Vero cells): < 200 µM; CC50 (Vero cell): 152 µM
3 | CCOc1cccc(N2C(=O)/C(=C\c3ccc(OCc4ccc(F)cc4)c(Br)c3)C(=O)NC2=S)c1 [Compound 6] | – | – | – | – | – | – | – | – | – | – | – | – | – | – | – | MIC (S. epidermidis ATCC12228 [1]; ATCC12228, read-out: MICs): 100 µM (≈ 55.5 µg/mL); MIC (S. epidermidis ATCC12228 [1]; ATCC12228, read-out: Minimal inhibitory concentration (MIC)): 100 µM (≈ 55.5 µg/mL); hemolysis at 1 h ([2]; at 4 × MIC (number in parenthesis)): 2.3%; hemolysis at 1 h ([2]; at MIC for S. epidermidis ATCC12228): 1.1%; MIC (S. epidermidis RP62A [4]; RP62A): 100 µM (≈ 55.5 µg/mL); IC50 (YycG' protein [7]): > 200 µM; inhibition at 50 µM (YycG' protein [7]): ~7%; MIC (S. aureus ATCC29213; ATCC29213, read-out: Minimal inhibitory concentration (MIC)): > 200 µM; Binding to the YycG' protein (YycG' protein [9]): only bound very poorly; CC50 [8]: > 200 µM

— paper PMC1660542, “Structure-based discovery of inhibitors of the YycG histidine kinase: New chemical leads to combat Staphylococcus epidermidis infections” (BMC Microbiology, 2006)
